Key:
[1] = not given; remark: listed apart in the source
[2] = not given; remark: listed apart in the source

| Structure (SMILES) | flash point | flash point [2] | further results |
| --- | --- | --- | --- |
| CC(Cl)(Cl)Cl [1,1,1-trichloroethane] | -1 °C |  |  |
| ClCC(Cl)Cl [1,1,2-trichloroethane] | 32 °C |  |  |
| c1ccc2c(c1)CCCC2 [1,2,3,4-tetrahydronaphthalene] | 77 °C |  |  |
| Cc1ccc(C)c(C)c1 [1,2,4-trimethylbenzene] | 44 °C |  |  |
| O=C1CCCCC1=O [1,2-cyclohexanedione] | 84 °C |  |  |
| COCCOC [1,2-dimethoxyethane] |  | -2 °C | flash point [1]: 0.00 °C |
| NCCN [1,2-ethanediamine] | 34 °C |  |  |
| C=C=C [1,2-propadiene] | -101 °C |  |  |
| C1=CCC=C1 [1,3-cyclopentadiene] | 25 °C |  |  |
| CCc1ccc(CC)cc1 [1,4-diethylbenzene] | 56 °C |  |  |
| OCCCCCCO [1,6-hexanediol] | 101 °C |  |  |
| CC(O)CN (centres undefined) [1-amino-2-propanol] | 77 °C |  |  |
| CCCCCCCBr [1-bromoheptane] | 60 °C |  |  |
| CCCCCCCCBr [1-bromooctane] | 78 °C |  |  |
| CCCCCCCCCCN [1-decanamine] | 86 °C |  |  |
| CCC1(C)CCCC1 [1-ethyl-1-methylcyclopentane] | 6 °C |  |  |
| CCN1CCCCC1 [1-ethylpiperidine] | 18 °C |  |  |
| CCCCCCCS [1-heptanethiol] | 41 °C |  |  |
| CCCCCCCO [1-heptanol] | 71 °C |  |  |
| Cc1cccc(I)c1 [1-iodo-3-methylbenzene] | 82 °C |  |  |
| CCCCI [1-iodobutane] | 33 °C |  |  |

| Structure (SMILES) | flash point | flash point [2] | further results |
| --- | --- | --- | --- |
| CCCCCI [1-iodopentane] | 43 °C |  |  |
| CCCCCCCCCO [1-nonanol] | 98 °C |  |  |
| CCCC(=O)c1ccccc1 [1-phenyl-1-butanone] | 88 °C |  |  |
| CCCS [1-propanethiol] | -21 °C |  |  |
| CC(C)(C)CO [2,2-dimethyl-1-propanol] | 36 °C |  |  |
| CC(=O)C(C)=O [2,3-butanedione] | 6 °C |  |  |
| OCC(Cl)CCl (centres undefined) [2,3-dichloro-1-propanol] | 93 °C |  |  |
| C1=COCC1 [2,3-dihydrofuran] | -24 °C |  |  |
| C=C(C)C(=C)C [2,3-dimethyl-1,3-butadiene] | -22 °C |  |  |
| C=C(C)C(C)C [2,3-dimethyl-1-butene] | -18 °C |  |  |
| CCC(C)C(C)C (centres undefined) [2,3-dimethylpentane] | -6 °C |  |  |
| Cc1ccc(O)c(C)c1 [2,4-dimethylphenol] | 94 °C |  |  |
| Cc1ccnc(C)c1 [2,4-dimethylpyridine] | 37 °C |  |  |
| Cc1ccc(C)c(O)c1 [2,5-dimethylphenol] | 95 °C |  |  |
| CC(=O)CCC(C)=O [2,5-hexanedione] | 79 °C |  |  |
| Cc1cccc(C)c1O [2,6-dimethylphenol] | 73 °C |  |  |
| CC(C)Br [2-bromopropane] | 1 °C |  |  |
| CCC(C)=O [2-butanone] | -9 °C |  |  |
| CCCCOCCOC(C)=O [2-butoxyethyl acetate] | 71 °C |  |  |
| CC1=CC2C(CC1)C2(C)C (centres undefined) [2-carene] | 38 °C |  |  |
| CC(Cl)CO (centres undefined) [2-chloro-1-propanol] | 52 °C |  |  |

| Structure (SMILES) | flash point | flash point [2] | further results |
| --- | --- | --- | --- |
| Cc1ccccc1Cl [2-chlorotoluene] | 43 °C |  |  |
| CCCCC(CC)CN (centres undefined) [2-ethyl-1-hexanamine] | 50 °C |  |  |
| CCCCC(CC)CO (centres undefined) [2-ethyl-1-hexanol] | 77 °C |  |  |
| CCC(CC)C(=O)O [2-ethylbutyric acid] | 87 °C |  |  |
| CC=CCCC [2-hexene] | -21 °C |  |  |
| OCCS [2-mercaptoethanol] | 73 °C |  |  |
| COCCO [2-methoxyethanol] |  | 38 °C | flash point [1]: 42.00 °C |
| C=CC(=C)C [2-methyl-1,3-butadiene] | -48 °C |  |  |
| CCC(C)CS (centres undefined) [2-methyl-1-butanethiol] | 19 °C |  |  |
| C=C(C)CCCCC [2-methyl-1-heptene] | 10 °C |  |  |
| C=C(C)CCC [2-methyl-1-pentene] | -26 °C |  |  |
| CC(C)CO [2-methyl-1-propanol] | 27 °C |  |  |
| CCCCC=C(C)C [2-methyl-2-heptene] | 8 °C |  |  |
| CCC=C(C)C [2-methyl-2-pentene] | -23 °C |  |  |
| C=C(C)CO [2-methyl-2-propen-1-ol] | 33 °C |  |  |
| C=C(C)C=O [2-methyl-2-propenal] | -15 °C |  |  |
| CCC(O)C(C)C (centres undefined) [2-methyl-3-pentanol] | 46 °C |  |  |
| CC=CCCCCC [2-octene] | 14 °C |  |  |
| CCCC(C)S (centres undefined) [2-pentanethiol] | 9 °C |  |  |
| OCCc1ccccc1 [2-phenylethanol] | 102 °C |  |  |
| Cc1ccccn1 [2-picoline] | 28 °C |  |  |

| Structure (SMILES) | flash point | flash point [2] | further results |
| --- | --- | --- | --- |
| C=CC(=O)OCCCC [2-propenoic acid, butyl ester] | 37 °C |  |  |
| Cc1ccc(O)c(C(C)(C)C)c1 [2-t-butyl-4-methylphenol] | 100 °C |  |  |
| Cc1cccc(C(C)(C)C)c1O [2-t-butyl-6-methylphenol] | 107 °C |  |  |
| C=CCCO [3-buten-1-ol] | 33 °C |  |  |
| C=CC(C)O (centres undefined) [3-buten-2-ol] | 20 °C |  |  |
| SCCCCl [3-chloro-1-propanethiol] | 43 °C |  |  |
| OCCCCl [3-chloro-1-propanol] | 73 °C |  |  |
| C=C(C)CCl [3-chloro-2-methyl-1-propene] | -12 °C |  |  |
| Cc1cccc(Cl)c1 [3-chlorotoluene] | 50 °C |  |  |
| CCCC(CC)CC [3-ethylhexane] | 6 °C |  |  |
| CCCC(=O)CC [3-hexanone] | 35 °C |  |  |
| CCCCCCCCCCCCCCCCC [heptadecane] |  | 148 °C | flash point [1]: 149.00 °C |
| CCCCC(=O)OC [methylpentanoate] |  | 22 °C |  |
| CCC(=O)OC [methylpropanoate] |  | -2 °C |  |
| O=[N+]([O-])c1ccccc1 [nitrobenzene] |  | 88 °C |  |
| CCc1ccccc1C [o-ethyltoluene] |  | 39 °C |  |
| Cc1ccccc1N [o-toluidine] |  | 85 °C |  |
| Cc1ccccc1C [o-xylene] |  | 30 °C |  |
| CCC#N [propionitrile] |  | 6 °C |  |
| CC1CO1 (centres undefined) [propyleneoxide] |  | -37 °C |  |
| C/C=C/C=O [trans-2-butenal] |  | 9 °C |  |

Now from value to molecule, other results behind:

| flash point | flash point [2] | Structure (SMILES) | further results |
| --- | --- | --- | --- |
|  | 63 °C | CCCCCCCCC=O [nonanal] |  |
|  | 117 °C | CCCCCCCCCc1ccccc1 [nonylbenzene] |  |
|  | 50 °C | Cc1ccccc1C(C)C [o-isopropyltoluene] |  |
|  | 51 °C | CCCCCCCC=O [octanal] |  |
|  | 82 °C | CCCCCCCCOC(C)=O [octylacetate] |  |
|  | 60 °C | CCCCCCCCN [octylamine] |  |
|  | 107 °C | CCCCCCCCc1ccccc1 [octylbenzene] |  |
|  | 69 °C | CCCCCCCCOC=O [octylformate] |  |
|  | 55 °C | CCc1ccc(CC)cc1 [p-diethylbenzene] |  |
|  | 47 °C | Cc1ccc(C(C)C)cc1 [p-isopropyltoluene] |  |
|  | -40 °C | CCCCC [pentane] | flash point [1]: -49.00 °C |
|  | 85 °C | CCCCC(=O)O [pentanoicacid] |  |
|  | 4 °C | CCCCCN [pentylamine] |  |
|  | 66 °C | CCCCCc1ccccc1 [pentylbenzene] |  |
|  | 63 °C | CCCCCC1CCCCC1 [pentylcyclohexane] |  |
|  | 26 °C | CCCCCOC=O [pentylformate] |  |
|  | 58 °C | CCC(=O)O [propionicacid] |  |
|  | 10 °C | CCCOC(C)=O [propylacetate] |  |
|  | 24 °C | C=CC(=O)OCCC [propylacrylate] |  |
|  | -30 °C | CCCN [propylamine] |  |
|  | 30 °C | CCCc1ccccc1 [propylbenzene] |  |
|  | 98 °C | CCCOC(=O)c1ccccc1 [propylbenzoate] |  |
|  | 31 °C | CCCC1CCCCC1 [propylcyclohexane] |  |

| flash point | flash point [2] | Structure (SMILES) | further results |
| --- | --- | --- | --- |
|  | 16 °C | CCCC1CCCC1 [propylcyclopentane] |  |
|  | -3 °C | CCCOC=O [propylformate] |  |
|  | 33 °C | c1cc[nH]c1 [pyrrole] |  |
|  | 101 °C | c1ccc2ncccc2c1 [quinoline] |  |
|  | 16 °C | CCC(C)OC(C)=O (centres undefined) [sec-butylacetate] |  |
|  | 76 °C | CC(=O)CC(=O)OC(C)(C)C [tert-butylacetoacetate] |  |
|  | 40 °C | CC(C)(C)C1CCCCC1 [tert-butylcyclohexane] |  |
|  | -28 °C | COC(C)(C)C [tert-butylmethylether] |  |
|  | 20 °C | CCC(=O)OC(C)(C)C [tert-butylpropanoate] |  |
|  | 25 °C | CCC(C)(C)OC(C)=O [tert-pentylacetate] |  |
|  | 21 °C | C1CCSCC1 [thiacyclohexane] |  |
|  | 13 °C | C1CCSC1 [thiacyclopentane] |  |
|  | -9 °C | c1ccsc1 [thiophene] |  |
|  | -6 °C | C/C=C/CCCC [trans-2-heptene] |  |
|  | -25 °C | C/C=C/CCC [trans-2-hexene] |  |
|  | 102 °C | CC/C=C/C(=O)O [trans-2-pentenoicacid] |  |
|  | -25 °C | CC/C=C/CC [trans-3-hexene] |  |
|  | 9 °C | CC/C=C/CCCC [trans-3-octene] |  |
|  | -27 °C | C/C=C/C(C)C [trans-4-methyl-2-pentene] |  |
|  | 71 °C | CCCCN(CCCC)CCCC [tributylamine] |  |
|  | -9 °C | CCN(CC)CC [triethylamine] |  |
|  | 111 °C | CCCCCCCCCCCOC(C)=O [undecylacetate] |  |
|  | 144 °C | CCCCCCCCCCCc1ccccc1 [undecylbenzene] |  |

Source: a flash point compilation (Sun et al. 2020)
